Measured values: US20110251069A1, “ISOXAZOLE DERIVATIVES FOR USE AS PLANT GROWTH REGULATORS” (SYNGENTA CROP PROTECTION LLC, priority 2008, published 2011)

System: wheat plants cultivar (cv.). Riband
Experiment: Biological evaluation of plant growth regulation effects on wheat
Format: in vivo
Conditions: 200 ppm; 2 weeks old wheat plants cv. Riband sprayed with formulated compound; assessed after 8 days at 22° C. and 80% r. h. in a greenhouse
Description: Biological Evaluation of Plant Growth Regulation Effects on Wheat
2 weeks old wheat plants cultivar (cv.). Riband were treated with the formulated test compound in a spray chamber. After an incubation period of 8 days at 22° C. and 80% relative humidity (r. h.) in a greenhouse, the plant growth regulating effects were assessed.

SMILES: OC(c1cccnc1)c1c(-c2ccccc2Cl)csc1-c1ccc(F)cc1F (stereo not shown) [Compound 175, 2-(2,4-Difluorophenyl)-4-(2-chlorophenyl)-3-[(3-pyridyl)hydroxymethyl]-thiophene]
- plant growth regulating effects: plant height decrease
